{
  "source": "paper PMC7066191",
  "about": "“Exploiting loss of heterozygosity for allele-selective colorectal cancer chemotherapy” (Nature Communications, 2020)",
  "key": {"[1]": {"target": "T1, N-acetyltransferase 2 (Homo sapiens, UniProt P11245)", "T1 construct": "gene NAT2", "T1 sequence (P11245 whole entry)": "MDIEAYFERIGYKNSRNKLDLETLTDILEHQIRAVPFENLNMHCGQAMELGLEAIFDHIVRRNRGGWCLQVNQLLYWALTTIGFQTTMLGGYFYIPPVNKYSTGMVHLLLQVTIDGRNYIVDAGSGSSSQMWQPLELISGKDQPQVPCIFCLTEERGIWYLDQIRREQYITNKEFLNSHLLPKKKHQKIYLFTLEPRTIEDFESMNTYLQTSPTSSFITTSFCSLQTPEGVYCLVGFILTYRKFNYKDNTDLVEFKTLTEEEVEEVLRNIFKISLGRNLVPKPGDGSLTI", "experiment": "recombinant human NAT2 acetylation kinetics, LC-MS/MS of NAPA", "assay_type": "biochemical"}, "[2]": {"target": "T2, Aurora kinase A (Homo sapiens, UniProt O14965)", "T2 construct": "gene AURKA", "experiment": "KdELECT competition binding (DiscoverX), 11-point; nanoDSF thermal shift"}, "[3]": {"target": "GRK4 (Homo sapiens, UniProt P32298)", "sequence (P32298 whole entry)": "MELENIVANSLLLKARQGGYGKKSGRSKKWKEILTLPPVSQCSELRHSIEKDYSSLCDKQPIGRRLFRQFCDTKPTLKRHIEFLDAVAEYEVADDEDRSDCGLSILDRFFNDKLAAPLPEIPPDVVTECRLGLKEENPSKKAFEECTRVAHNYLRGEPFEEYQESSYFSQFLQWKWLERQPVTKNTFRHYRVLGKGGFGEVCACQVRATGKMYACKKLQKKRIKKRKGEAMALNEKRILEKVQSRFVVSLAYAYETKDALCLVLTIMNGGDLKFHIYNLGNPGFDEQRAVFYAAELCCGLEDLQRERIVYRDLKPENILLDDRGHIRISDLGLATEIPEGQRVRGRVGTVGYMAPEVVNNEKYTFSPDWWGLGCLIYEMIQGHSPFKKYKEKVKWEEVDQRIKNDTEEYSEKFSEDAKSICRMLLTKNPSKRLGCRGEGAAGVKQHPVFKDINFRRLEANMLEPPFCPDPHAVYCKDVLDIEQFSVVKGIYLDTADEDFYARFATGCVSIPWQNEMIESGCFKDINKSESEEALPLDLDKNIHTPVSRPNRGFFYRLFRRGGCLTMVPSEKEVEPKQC", "experiment": "biochemical", "design": "scanMAX competition binding; kinase recovered on immobilized ligand quantified by qPCR, per cent of control", "settings": "read-out: APA (POC)", "procedure": "(§1) The binding affinities of APA and NAPA were evaluated in the scanMAX^sm Kinase Assay Panel (DiscoverX) at a final concentration of 10 µM. The compounds were tested for steric or allosteric binding to kinases in solution. The kinase was captured from the solution through an immobilized kinase-specific ligand and the kinase recovery was quantified. The amount of recovered kinase in the presence or absence of APA or NAPA was measured by quantitative PCR compared with the kinase capture in absence of the compound. Any compound reducing the binding affinity of a kinase to the respective immobilized ligand was scored as a potential hit, and the binding affinity of the compound toward a kinase is interpreted as the difference between the kinase recovery in the absence and presence of the compound. The inhibitory binding constants (Kd) of APA and NAPA to AURKA were evaluated in a KdELECT Kinase Assay (DiscoverX). […] Data acquisition followed the same methodology as for the scanMAX^sm Kinase Assay Panel. 6 Supplementary Figure 4. Kinome inhibition profiles of APA and its NAT2 metabolite NAPA identifies preferential APA kinase targets and differential binding to AURKA a The human kinome was assessed for binding affinity to APA and NAPA at 10 µM concentration (468 kinases in the scanMAX Kinase Assay Panel, DiscoverX). The family stratification of kinases is shown as a cladogram. Circles visualize the binding affinity of NAPA and APA towards each kinase with a higher intensity of blue corresponding to a higher binding affinity. […] One single data point from one experiment at a concentration 18.5 µM of APA was excluded as an outlier. c Thermal shift assay for human recombinant AURKA in the presence of APA and the selective inhibitor S1451. Melting temperatures were obtained by calculating the first derivative of the tryptophan fluorescence ratio at 350 nm and 330 nm and are shown for AURKA in the presence of S1451 (blue) and APA (yellow). Structural similarities between APA and kinase inhibitors[27] prompted investigation of protein kinases as mediators of APA toxicity. […] To enrich for kinase interactions that could explain the preferential killing of slow NAT2 cells, we compared the binding affinity of each kinase with APA and NAPA, selected 44 targets with preferential binding to APA and excluded kinases non-essential for cell survival and those not expressed in CRC cells (Supplementary Fig. 4A, Supplementary Table 4). […] The growth inhibition of RKO and DLD-1 following siRNA-mediated AURKA knockdown (Figs. 3c, d) reflected the relative efficiency of protein downregulation (Supplementary Fig. 5C, D). […] (Supplementary Fig. 4C). AURKA regulates cell cycle progression through association with other centrosome and spindle-associated proteins. Its activation requires auto-phosphorylation at Thr288 and ensures spindle pole integrity, centrosome duplication as well as adequate chromosomal alignment and segregation, while its inhibition leads to multipolar spindles with acentrosomal poles[28],[31]. […] S1451 reduced the fraction of pAURKA levels by >90% regardless of NAT2 expression (Fig. 3f and Su"}, "[4]": {"target": "CLK1 (Homo sapiens, UniProt P49759)", "sequence (P49759 whole entry)": "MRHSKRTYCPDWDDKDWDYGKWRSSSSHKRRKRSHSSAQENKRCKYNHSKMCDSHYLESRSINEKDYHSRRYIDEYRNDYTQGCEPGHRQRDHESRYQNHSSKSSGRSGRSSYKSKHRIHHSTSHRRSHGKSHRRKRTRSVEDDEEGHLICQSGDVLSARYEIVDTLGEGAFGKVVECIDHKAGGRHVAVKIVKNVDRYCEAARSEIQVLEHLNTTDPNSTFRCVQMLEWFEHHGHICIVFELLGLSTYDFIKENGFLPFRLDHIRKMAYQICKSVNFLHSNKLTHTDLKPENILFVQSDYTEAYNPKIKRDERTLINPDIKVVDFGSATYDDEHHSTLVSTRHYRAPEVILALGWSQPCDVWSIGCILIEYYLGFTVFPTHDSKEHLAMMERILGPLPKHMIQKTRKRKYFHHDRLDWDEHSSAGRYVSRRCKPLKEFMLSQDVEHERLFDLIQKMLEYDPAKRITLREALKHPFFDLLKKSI", "experiment": "biochemical", "design": "scanMAX competition binding; kinase recovered on immobilized ligand quantified by qPCR, per cent of control", "settings": "read-out: APA (POC)", "procedure": "as §1"}, "[5]": {"target": "AAK1 (Homo sapiens, UniProt Q2M2I8)", "sequence (Q2M2I8 whole entry)": "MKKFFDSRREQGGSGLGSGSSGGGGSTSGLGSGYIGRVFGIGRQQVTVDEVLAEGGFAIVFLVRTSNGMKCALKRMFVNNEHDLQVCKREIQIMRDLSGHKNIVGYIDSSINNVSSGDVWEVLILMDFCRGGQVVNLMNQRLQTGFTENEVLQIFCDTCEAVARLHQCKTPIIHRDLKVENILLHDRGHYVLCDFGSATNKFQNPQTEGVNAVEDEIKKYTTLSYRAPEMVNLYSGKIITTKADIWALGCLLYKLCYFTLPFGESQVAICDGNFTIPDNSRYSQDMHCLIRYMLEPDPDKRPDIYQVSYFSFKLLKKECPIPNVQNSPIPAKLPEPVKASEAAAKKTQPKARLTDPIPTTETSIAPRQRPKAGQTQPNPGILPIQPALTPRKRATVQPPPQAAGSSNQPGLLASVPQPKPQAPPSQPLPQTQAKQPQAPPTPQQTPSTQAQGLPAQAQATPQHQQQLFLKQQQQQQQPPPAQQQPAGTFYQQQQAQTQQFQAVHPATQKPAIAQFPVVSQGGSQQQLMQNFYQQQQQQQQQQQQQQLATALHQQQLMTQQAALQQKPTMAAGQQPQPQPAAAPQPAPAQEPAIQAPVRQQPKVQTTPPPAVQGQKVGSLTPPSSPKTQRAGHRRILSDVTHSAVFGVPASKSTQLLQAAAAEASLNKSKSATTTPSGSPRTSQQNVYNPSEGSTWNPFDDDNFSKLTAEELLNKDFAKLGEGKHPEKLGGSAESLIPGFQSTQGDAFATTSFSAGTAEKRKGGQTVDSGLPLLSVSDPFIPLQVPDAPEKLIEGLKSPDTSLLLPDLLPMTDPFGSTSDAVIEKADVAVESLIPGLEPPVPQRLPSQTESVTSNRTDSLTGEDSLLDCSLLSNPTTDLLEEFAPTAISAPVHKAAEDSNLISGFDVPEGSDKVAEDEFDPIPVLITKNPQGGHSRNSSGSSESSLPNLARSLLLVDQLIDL", "experiment": "biochemical", "design": "scanMAX competition binding; kinase recovered on immobilized ligand quantified by qPCR, per cent of control", "settings": "read-out: APA (POC)", "procedure": "as §1"}, "[6]": {"target": "NEK10 (Homo sapiens, UniProt Q6ZWH5)", "sequence (Q6ZWH5 whole entry)": "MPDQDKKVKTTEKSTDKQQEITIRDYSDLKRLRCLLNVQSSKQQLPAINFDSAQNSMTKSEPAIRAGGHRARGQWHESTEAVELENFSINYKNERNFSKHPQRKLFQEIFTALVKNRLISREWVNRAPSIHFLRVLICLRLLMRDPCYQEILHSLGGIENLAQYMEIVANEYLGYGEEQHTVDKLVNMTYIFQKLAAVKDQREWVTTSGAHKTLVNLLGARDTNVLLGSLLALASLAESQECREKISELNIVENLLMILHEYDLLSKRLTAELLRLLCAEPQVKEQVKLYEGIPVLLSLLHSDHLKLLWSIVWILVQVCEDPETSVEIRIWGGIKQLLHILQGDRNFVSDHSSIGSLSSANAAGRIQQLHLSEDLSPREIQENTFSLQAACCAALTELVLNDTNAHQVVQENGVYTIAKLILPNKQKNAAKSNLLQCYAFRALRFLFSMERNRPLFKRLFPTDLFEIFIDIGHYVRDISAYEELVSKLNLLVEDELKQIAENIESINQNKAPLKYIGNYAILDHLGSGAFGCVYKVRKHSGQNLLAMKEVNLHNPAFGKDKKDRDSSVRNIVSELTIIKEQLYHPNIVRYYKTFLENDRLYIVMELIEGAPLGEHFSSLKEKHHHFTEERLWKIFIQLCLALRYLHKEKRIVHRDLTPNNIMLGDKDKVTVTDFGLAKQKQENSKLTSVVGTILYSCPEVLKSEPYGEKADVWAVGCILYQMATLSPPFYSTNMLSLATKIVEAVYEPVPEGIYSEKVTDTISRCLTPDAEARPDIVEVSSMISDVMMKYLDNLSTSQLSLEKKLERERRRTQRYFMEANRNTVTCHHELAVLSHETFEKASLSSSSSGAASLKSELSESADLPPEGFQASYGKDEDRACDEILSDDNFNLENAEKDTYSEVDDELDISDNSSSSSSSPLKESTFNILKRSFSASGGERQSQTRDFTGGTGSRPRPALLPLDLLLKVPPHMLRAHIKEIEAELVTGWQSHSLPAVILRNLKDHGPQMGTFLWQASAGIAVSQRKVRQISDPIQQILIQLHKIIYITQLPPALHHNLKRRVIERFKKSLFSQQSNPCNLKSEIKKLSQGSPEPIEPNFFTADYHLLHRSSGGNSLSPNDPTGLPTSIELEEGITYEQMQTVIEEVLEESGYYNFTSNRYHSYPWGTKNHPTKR", "experiment": "biochemical", "design": "scanMAX competition binding; kinase recovered on immobilized ligand quantified by qPCR, per cent of control", "settings": "read-out: APA (POC)", "procedure": "as §1"}, "[7]": {"target": "MAP3K9 (Homo sapiens, UniProt P80192)", "sequence (P80192 whole entry)": "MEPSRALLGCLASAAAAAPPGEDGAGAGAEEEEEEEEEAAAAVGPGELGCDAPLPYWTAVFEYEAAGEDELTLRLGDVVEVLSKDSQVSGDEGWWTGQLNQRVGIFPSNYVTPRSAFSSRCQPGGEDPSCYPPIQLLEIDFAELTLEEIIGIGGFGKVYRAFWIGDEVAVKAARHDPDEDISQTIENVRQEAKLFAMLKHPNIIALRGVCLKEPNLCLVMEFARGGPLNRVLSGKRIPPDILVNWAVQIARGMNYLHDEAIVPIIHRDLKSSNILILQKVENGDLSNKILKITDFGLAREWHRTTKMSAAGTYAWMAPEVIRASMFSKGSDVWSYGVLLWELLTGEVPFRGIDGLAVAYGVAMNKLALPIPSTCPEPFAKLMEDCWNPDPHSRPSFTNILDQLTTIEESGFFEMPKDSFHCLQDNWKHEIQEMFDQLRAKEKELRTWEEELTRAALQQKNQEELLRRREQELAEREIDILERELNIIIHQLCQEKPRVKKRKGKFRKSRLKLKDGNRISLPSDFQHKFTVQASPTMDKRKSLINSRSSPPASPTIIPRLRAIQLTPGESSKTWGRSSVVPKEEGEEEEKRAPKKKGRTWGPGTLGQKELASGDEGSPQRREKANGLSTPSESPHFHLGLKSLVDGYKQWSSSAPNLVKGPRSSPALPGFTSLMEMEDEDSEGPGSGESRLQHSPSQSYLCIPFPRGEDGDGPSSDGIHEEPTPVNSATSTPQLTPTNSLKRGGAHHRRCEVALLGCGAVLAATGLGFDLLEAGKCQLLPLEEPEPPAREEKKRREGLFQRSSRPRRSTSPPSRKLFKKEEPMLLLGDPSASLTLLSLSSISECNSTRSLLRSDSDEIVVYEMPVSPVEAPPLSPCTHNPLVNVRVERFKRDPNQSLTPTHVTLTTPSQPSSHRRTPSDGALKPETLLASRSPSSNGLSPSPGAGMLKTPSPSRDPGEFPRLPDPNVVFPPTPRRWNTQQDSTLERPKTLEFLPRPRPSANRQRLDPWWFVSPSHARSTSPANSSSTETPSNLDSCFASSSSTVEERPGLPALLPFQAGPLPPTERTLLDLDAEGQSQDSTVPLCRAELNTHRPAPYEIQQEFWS", "experiment": "biochemical", "design": "scanMAX competition binding; kinase recovered on immobilized ligand quantified by qPCR, per cent of control", "settings": "read-out: APA (POC)", "procedure": "as §1"}, "[8]": {"target": "T3, RPS6KA3_Dom1 (Homo sapiens, UniProt P51812)", "T3 construct": "gene RPS6KA3; Kin.Dom.1 N-terminal", "experiment": "biochemical", "design": "scanMAX competition binding; kinase recovered on immobilized ligand quantified by qPCR, per cent of control", "settings": "read-out: APA (POC)", "procedure": "as §1"}, "[9]": {"target": "HIPK2 (Homo sapiens, UniProt Q9H2X6)", "experiment": "biochemical", "design": "scanMAX competition binding; kinase recovered on immobilized ligand quantified by qPCR, per cent of control", "settings": "read-out: APA (POC)", "procedure": "as §1"}, "[10]": {"target": "IRAK3 (Homo sapiens, UniProt Q9Y616)", "experiment": "biochemical", "design": "scanMAX competition binding; kinase recovered on immobilized ligand quantified by qPCR, per cent of control", "settings": "read-out: APA (POC)", "procedure": "as §1"}, "[11]": {"target": "MKNK1 (Homo sapiens, UniProt Q9BUB5)", "sequence (Q9BUB5 whole entry)": "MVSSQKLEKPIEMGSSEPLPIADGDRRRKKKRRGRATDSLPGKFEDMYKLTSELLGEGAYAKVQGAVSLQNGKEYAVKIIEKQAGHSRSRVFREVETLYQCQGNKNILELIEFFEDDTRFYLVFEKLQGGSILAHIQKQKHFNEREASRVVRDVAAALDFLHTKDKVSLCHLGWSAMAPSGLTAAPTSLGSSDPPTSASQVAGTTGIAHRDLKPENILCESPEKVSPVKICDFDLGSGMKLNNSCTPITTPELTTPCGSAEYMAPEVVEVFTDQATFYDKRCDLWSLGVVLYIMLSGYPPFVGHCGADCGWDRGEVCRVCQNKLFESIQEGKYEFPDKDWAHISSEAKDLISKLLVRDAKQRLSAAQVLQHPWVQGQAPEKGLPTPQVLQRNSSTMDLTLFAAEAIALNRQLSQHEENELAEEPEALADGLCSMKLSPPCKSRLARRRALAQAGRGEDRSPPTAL", "experiment": "biochemical", "design": "scanMAX competition binding; kinase recovered on immobilized ligand quantified by qPCR, per cent of control", "settings": "read-out: APA (POC)", "procedure": "as §1"}, "[12]": {"target": "HIPK1 (Homo sapiens, UniProt Q86Z02)", "experiment": "biochemical", "design": "scanMAX competition binding; kinase recovered on immobilized ligand quantified by qPCR, per cent of control", "settings": "read-out: APA (POC)", "procedure": "as §1"}, "[13]": {"target": "PIP5K1A (Homo sapiens, UniProt Q99755)", "experiment": "biochemical", "design": "scanMAX competition binding; kinase recovered on immobilized ligand quantified by qPCR, per cent of control", "settings": "read-out: APA (POC)", "procedure": "as §1"}, "[14]": {"target": "T4, GSG2 (Homo sapiens, UniProt Q8TF76)", "T4 construct": "gene HASPIN", "experiment": "biochemical", "design": "scanMAX competition binding; kinase recovered on immobilized ligand quantified by qPCR, per cent of control", "settings": "read-out: APA (POC)", "procedure": "as §1"}, "[15]": {"target": "DYRK1A (Homo sapiens, UniProt Q13627)", "experiment": "biochemical", "design": "scanMAX competition binding; kinase recovered on immobilized ligand quantified by qPCR, per cent of control", "settings": "read-out: APA (POC)", "procedure": "as §1"}},
  "data": [
    {"smiles": "COc1cc(Nc2cncc(-c3ccc(N)cc3)n2)cc(OC)c1OC", "note": "[APA, 6-(4-aminophenyl)-N-(3,4,5-trimethoxyphenyl)pyrazin-2-amine]", "values": [
      {"measurement": "recombinant human NAT2 acetylation kinetics, LC-MS/MS of NAPA", "setting": "[1]", "value": "Recombinant assays with human NAT1 and NAT2 further proved APA acetylation to be specifically mediated by NAT2"},
      {"measurement": "Kd", "setting": "[2]", "value": 13.5, "unit": "µM"},
      {"measurement": "remaining binding at 10 µM", "setting": "[3]", "value": 15, "unit": "%"},
      {"measurement": "remaining binding at 10 µM", "setting": "[4]", "value": 25, "unit": "%"},
      {"measurement": "remaining binding at 10 µM", "setting": "[5]", "value": 45, "unit": "%"},
      {"measurement": "remaining binding at 10 µM", "setting": "[6]", "value": 37, "unit": "%"},
      {"measurement": "remaining binding at 10 µM", "setting": "[7]", "value": 8.5, "unit": "%"},
      {"measurement": "remaining binding at 10 µM", "setting": "[8]", "value": 39, "unit": "%"},
      {"measurement": "remaining binding at 10 µM", "setting": "[9]", "value": 22, "unit": "%"},
      {"measurement": "remaining binding at 10 µM", "setting": "[10]", "value": 46, "unit": "%"},
      {"measurement": "remaining binding at 10 µM", "setting": "[11]", "value": 37, "unit": "%"},
      {"measurement": "remaining binding at 10 µM", "setting": "[12]", "value": 12, "unit": "%"},
      {"measurement": "remaining binding at 10 µM", "setting": "[13]", "value": 52, "unit": "%"},
      {"measurement": "remaining binding at 10 µM", "setting": "[14]", "value": 6.9, "unit": "%"},
      {"measurement": "remaining binding at 10 µM", "setting": "[15]", "value": 7.8, "unit": "%"}
    ]}
  ]
}
